Experimental findings from patent publication US10800792B2, “Inhibitors of Bruton's tyrosine kinase and method of their use” (JANSSEN PHARMACEUTICA NV, priority 2015, dated 2020) are described below.

Molecules are shown by their SMILES.

unphosphorylated-BTK kinase domain (UP-BTK), GST-tagged human BTK (389-659aa), sequence (Q06187 389-659): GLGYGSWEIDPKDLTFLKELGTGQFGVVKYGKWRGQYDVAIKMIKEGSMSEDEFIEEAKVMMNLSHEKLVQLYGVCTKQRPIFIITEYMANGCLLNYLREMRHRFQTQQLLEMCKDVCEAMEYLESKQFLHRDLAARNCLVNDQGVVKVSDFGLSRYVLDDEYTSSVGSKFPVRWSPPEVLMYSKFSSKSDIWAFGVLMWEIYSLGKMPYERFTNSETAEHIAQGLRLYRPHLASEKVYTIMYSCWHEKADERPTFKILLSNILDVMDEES

The first assay has as its target unphosphorylated-BTK kinase domain (UP-BTK), GST-tagged human BTK (389-659aa) (Homo sapiens (Human), UniProt Q06187). Put plainly: BTK kinase Lanthascreen binding assay. Conditions: pIC50 = negative log of the IC50 in molar; 60 minutes incubation, 50 nM Tracer 236. In short, it runs like this: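 Measures how well compounds compete with a fluorescence-labelled tracer for binding to BTK in its unphosphorylated state. IC50 values were fitted and expressed as pIC50 (negative logarithm of the molar IC50).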
Background: In TR-FRET formats the signal depends on donor and acceptor labels being close together.
Regarding `Cc1cc(Oc2ccccc2)ccc1N1C(=O)Nc2c(C(=O)N[C@@H]3CCCN(C(=O)C4CCOCC4)C3)sc3nccc1c23` [Example 219, (R)-5-(2-Methyl-4-phenoxyphenyl)-4-oxo-N-(1-(tetrahydro-2H-pyran-4-carbonyl)piperidin-3-yl)-4,5-dihydro-3H-1-thia-3,5,8-triazaacenaphthylene-2-carboxamide], the “BTK_I_binding pIC50” value is recorded as 6.9.

With `Cc1cc(Oc2ccccc2O)ccc1N1C(=O)Nc2c(C(=O)N[C@@H]3CCCN(C)C3)sc3nccc1c23` [Example 220, (R)-5-(4-(2-Hydroxyphenoxy)-2-methylphenyl)-N-(1-methylpiperidin-3-yl)-4-oxo-4,5-dihydro-3H-1-thia-3,5,8-triazaacenaphthylene-2-carboxamide], the “BTK_I_binding pIC50” value is given as 6.5. As for `Cc1cc(Oc2ccccc2)cc(F)c1N1C(=O)Nc2c(C(=O)N[C@@H]3CCCN(C)C3)sc3nccc1c23` [Example 222, (R)-5-(2-Fluoro-6-methyl-4-phenoxyphenyl)-N-(1-methylpiperidin-3-yl)-4-oxo-4,5-dihydro-3H-1-thia-3,5,8-triazaacenaphthylene-2-carboxamide], the “BTK_I_binding pIC50” value was 6.7. For the compound `Cc1cc(Oc2ccccc2C(C)C)ccc1N1C(=O)Nc2c(C(=O)N[C@@H]3CCCN(C)C3)sc3nccc1c23` [Example 223, (R)-5-(4-(2-Isopropylphenoxy)-2-methylphenyl)-N-(1-methylpiperidin-3-yl)-4-oxo-4,5-dihydro-3H-1-thia-3,5,8-triazaacenaphthylene-2-carboxamide], the “BTK_I_binding pIC50” value stood at 6.6. The same measure, in the same setting: as for `CO[C@H]1CNC[C@H](NC(=O)c2sc3nccc4c3c2NC(=O)N4c2ccc(Oc3ccccc3)cc2C)C1` [Example 224, N-((3R,5R)-5-Methoxypiperidin-3-yl)-5-(2-methyl-4-phenoxyphenyl)-4-oxo-4,5-dihydro-3H-1-thia-3,5,8-triazaacenaphthylene-2-carboxamide], the figure is 6.8; as for `CC(C)=CC(=O)N1CCC[C@@H](NC(=O)c2sc3nccc4c3c2NC(=O)N4c2ccc(Oc3ccccc3)cc2C)C1` [Example 225, (R)-5-(2-Methyl-4-phenoxyphenyl)-N-(1-(3-methylbut-2-enoyl)piperidin-3-yl)-4-oxo-4,5-dihydro-3H-1-thia-3,5,8-triazaacenaphthylene-2-carboxamide], 6.7.

Consider `COCc1cccc(Oc2ccc(N3C(=O)Nc4c(C(=O)N[C@@H]5CCCN(C)C5)sc5nccc3c45)c(C)c2)c1` [Example 226, (R)-5-(4-(3-(Methoxymethyl)phenoxy)-2-methylphenyl)-N-(1-methylpiperidin-3-yl)-4-oxo-4,5-dihydro-3H-1-thia-3,5,8-triazaacenaphthylene-2-carboxamide], for which the “BTK_I_binding pIC50” value worked out at 6.5.

For the compound `Cc1cc(Oc2ccccc2OC(F)(F)F)ccc1N1C(=O)Nc2c(C(=O)N[C@@H]3CCCN(C)C3)sc3nccc1c23` [Example 227, (R)-5-(2-Methyl-4-(2-(trifluoromethoxy)phenoxy)phenyl)-N-(1-methylpiperidin-3-yl)-4-oxo-4,5-dihydro-3H-1-thia-3,5,8-triazaacenaphthylene-2-carboxamide], the “BTK_I_binding pIC50” value came out at 6.5. For the compound `Cc1cc(Oc2ccccc2)ccc1N1C(=O)Nc2c(C(=O)N[C@@H]3CCCN(C(=O)/C(F)=C/C4CC4)C3)sc3nccc1c23` [Example 228, (R,Z)—N-(1-(3-Cyclopropyl-2-fluoroacryloyl)piperidin-3-yl)-5-(2-methyl-4-phenoxyphenyl)-4-oxo-4,5-dihydro-3H-1-thia-3,5,8-triazaacenaphthylene-2-carboxamide], the “BTK_I_binding pIC50” value was found to be 6.6.

As for `Cc1cc(Oc2ccccc2)ccc1N1C(=O)Nc2c(C(=O)NC3CN(C(=O)/C(C#N)=C/C4CC4)C3)sc3nccc1c23` [Example 229, (E)-N-(1-(2-Cyano-3-cyclopropylacryloyl)azetidin-3-yl)-5-(2-methyl-4-phenoxyphenyl)-4-oxo-4,5-dihydro-3H-1-thia-3,5,8-triazaacenaphthylene-2-carboxamide], the “BTK_I_binding pIC50” value is reported as 6.7.

Turning to `Cc1cc(Oc2ccccc2)ccc1N1C(=O)Nc2c(C(=O)NC3CN(C4CC4)C3)sc3nccc1c23` [Example 230, N-(1-Cyclopropylazetidin-3-yl)-5-(2-methyl-4-phenoxyphenyl)-4-oxo-4,5-dihydro-3H-1-thia-3,5,8-triazaacenaphthylene-2-carboxamide], the “BTK_I_binding pIC50” value came out at 6.4. With `Cc1cc(OC2CCOCC2)ccc1N1C(=O)Nc2c(C(=O)N[C@@H]3CCCN(C(=O)/C(C#N)=C/C4CC4)C3)sc3nccc1c23` [Example 233, (R,E)-N-(1-(2-Cyano-3-cyclopropylacryloyl)piperidin-3-yl)-5-(2-methyl-4-((tetrahydro-2H-pyran-4-yl)oxy)phenyl)-4-oxo-4,5-dihydro-3H-1-thia-3,5,8-triazaacenaphthylene-2-carboxamide], the “BTK_I_binding pIC50” value stood at 7.2. Still for that read-out and setting: the result for `O=C(N[C@@H]1CCCNC1)c1sc2nccc3c2c1NC(=O)N3c1c(F)cc(Oc2ccccc2)cc1F` [Example 235, (R)-5-(2,6-difluoro-4-phenoxyphenyl)-4-oxo-N-(piperidin-3-yl)-4,5-dihydro-3H-1-thia-3,5,8-triazaacenaphthylene-2-carboxamide] reads 7.0; that for `Cc1cc(Oc2ccccc2)ccc1N1C(=O)Nc2c(C(=O)N[C@H]3CNC[C@@H]3O)sc3nccc1c23` [Example 236, N-((3S,4S)-4-Hydroxypyrrolidin-3-yl)-5-(2-methyl-4-phenoxyphenyl)-4-oxo-4,5-dihydro-3H-1-thia-3,5,8-triazaacenaphthylene-2-carboxamide], 7.0.

Turning to `Cc1cc(Oc2ccccc2)ccc1N1C(=O)Nc2c(C(=O)NC3CCCN(C(=O)/C=C/CNC(=O)CCCC(=O)NCCCOCCOCCOCCCNC(=O)CCCC[C@H]4SC[C@@H]5NC(=O)N[C@@H]54)C3)sc3nccc1c23` (stereo partly drawn) [Example 237, N^1-((E)-4-(3-(5-(2-methyl-4-phenoxyphenyl)-4-oxo-4,5-dihydro-3H-1-thia-3,5,8-triazaacenaphthylene-2-carboxamido)piperidin-1-yl)-4-oxobut-2-en-1-yl)-N5-(15-oxo-19-((3aS,4R,6aR)-2-oxohexahydro-1H-thieno[34-d]imidazol-4-yl)-4,7,10-trioxa-14-azanonadecyl)glutaramide], the “BTK_I_binding pIC50” value was 6.9.

Consider `CNC(C)(C)/C=C(\C#N)C(=O)N1CCC[C@@H](NC(=O)c2sc3nccc4c3c2NC(=O)N4c2ccc(Oc3ccccc3)cc2C)C1` [Example 238, (R,E)-N-(1-(2-Cyano-4-methyl-4-(methylamino)pent-2-enoyl)piperidin-3-yl)-5-(2-methyl-4-phenoxyphenyl)-4-oxo-4,5-dihydro-3H-1-thia-3,5,8-triazaacenaphthylene-2-carboxamide], for which the “BTK_I_binding pIC50” value stood at 6.8. The same measure, in the same setting: as for `Cc1cc(Oc2ccccc2)ccc1N1C(=O)Nc2c(C(=O)N[C@H]3CNC[C@H]3O)sc3nccc1c23` [Example 241, N-((3S,4R)-4-hydroxypyrrolidin-3-yl)-5-(2-methyl-4-phenoxyphenyl)-4-oxo-4,5-dihydro-3H-1-thia-3,5,8-triazaacenaphthylene-2-carboxamide], the figure is 6.7; as for `Cc1cc(Oc2ccccc2C(F)(F)F)ccc1N1C(=O)Nc2c(C(=O)N[C@@H]3CCCN(C)C3)sc3nccc1c23` [Example 242, (R)-5-(2-Methyl-4-(2-(trifluoromethyl)phenoxy)phenyl)-N-(1-methylpiperidin-3-yl)-4-oxo-4,5-dihydro-3H-1-thia-3,5,8-triazaacenaphthylene-2-carboxamide], 6.7; as for `Cc1cc(Oc2ccccc2)ccc1N1C(=O)Nc2c(C(=O)N[C@H]3CN(C)C[C@@H]3O)sc3nccc1c23` [Example 243, N-((3S,4S)-4-Hydroxy-1-methylpyrrolidin-3-yl)-5-(2-methyl-4-phenoxyphenyl)-4-oxo-4,5-dihydro-3H-1-thia-3,5,8-triazaacenaphthylene-2-carboxamide], 6.6.

For `CO[C@H]1CN(C)C[C@@H]1NC(=O)c1sc2nccc3c2c1NC(=O)N3c1ccc(Oc2ccccc2)cc1C` [Example 244, N-((3S,4S)-4-Methoxy-1-methylpyrrolidin-3-yl)-5-(2-methyl-4-phenoxyphenyl)-4-oxo-4,5-dihydro-3H-1-thia-3,5,8-triazaacenaphthylene-2-carboxamide], the “BTK_I_binding pIC50” value is reported as 6.6. Still for that read-out and setting: as for `CO[C@H]1CNC[C@@H]1NC(=O)c1sc2nccc3c2c1NC(=O)N3c1ccc(Oc2ccccc2)cc1C` [Example 245, N-((3S,4S)-4-Methoxypyrrolidin-3-yl)-5-(2-methyl-4-phenoxyphenyl)-4-oxo-4,5-dihydro-3H-1-thia-3,5,8-triazaacenaphthylene-2-carboxamide], the figure is 6.6. The same measure, in the same setting: as for `COCCC(=O)N1CC(NC(=O)c2sc3nccc4c3c2NC(=O)N4c2ccc(Oc3ccccc3)cc2C)C1` [Example 246, N-(1-(3-Methoxypropanoyl)azetidin-3-yl)-5-(2-methyl-4-phenoxyphenyl)-4-oxo-4,5-dihydro-3H-1-thia-3,5,8-triazaacenaphthylene-2-carboxamide], the figure is 6.5; as for `Cc1cc(Oc2ccccc2)ccc1N1C(=O)Nc2c(C(=O)N[C@@H]3CCCN(C(=O)/C=C/C(C)C)C3)sc3nccc1c23` [Example 247, (R,E)-5-(2-Methyl-4-phenoxyphenyl)-N-(1-(4-methylpent-2-enoyl)piperidin-3-yl)-4-oxo-4,5-dihydro-3H-1-thia-3,5,8-triazaacenaphthylene-2-carboxamide], 6.5; as for `Cc1cc(Oc2ccccc2)ccc1N1C(=O)Nc2c(C(=O)NC3CN(C)C3)sc3nccc1c23` [Example 248, 5-(2-Methyl-4-phenoxyphenyl)-N-(1-methylazetidin-3-yl)-4-oxo-4,5-dihydro-3H-1-thia-3,5,8-triazaacenaphthylene-2-carboxamide], 6.5.

Staying with this assay, now noted: pIC50 = negative log of the IC50 in molar; 60 minutes incubation, 50 nM Tracer 236; read-out: BTK_I_binding pIC50 (converted).
Regarding `Cc1cc(Oc2ccccc2)ccc1N1C(=O)Nc2c(C(=O)NC3CN(C(=O)CCS(C)(=O)=O)C3)sc3nccc1c23` [Example 240], the IC50 is 200 nM.
